Measurements taken from patent US20060029546A1, “Materials and methods for identifying anti-schizophrenic agents” (deCODE Genetics, Inc., priority 2004, published 2006).

Columns and labels:
Fyn [1] = experiment: Fyn phosphorylation in HEK293 cells stably expressing ErbB4 and Fyn-V5 (Western blot); assay type: cell-based
Protocol: (§1) To determine whether NRG1-induced activation of ErbB4 leads to Fyn phosphorylation, NRG1 exposure of HEK293 cells stably expressing ErbB4 and Fyn-V5 were activated with 7.2 nM NRG1 (R&D Systems; Minneapolis, Minn.) for 10 minutes and lysed using RIPA buffer. […] There was no change in Fyn Tyr531 phosphorylation. […] Fyn is activated either by dephophorylation of Tyr531 with loss of the SH2 domain interaction, or through displacement of the SH2 domain by a second tyrosine phosphorylated binding partner allowing auto-phosphorylation on the Fyn activation loop residue Tyr420. Alternatively, Fyn can be phosphorylated on Tyr420 and activated directly by a second kinase. Thus, the NRG1-stimulated increase in Fyn Tyr420 phosphorylation may be through stimulation of Fyn auto-phosphorylation, through phosphorylation of Fyn by ErbB4, or through phosphorylation of Fyn by an ErbB4 activated tyrosine kinase other than Fyn.
These alternatives were distinguished by applying PP2 (25 nM; Calbiochem, San Diego, Calif.) a relatively selective Src-family kinase inhibitor, to inhibit Fyn while ErbB4 signaling was stimulated with NRG1. […] Fyn was phosphorylated at a low level on Tyr420 under basal conditions. […] After NRG1 stimulation, an increase in Fyn Tyr420 phosphorylation was seen, even under conditions in which PP2 was used to inhibit p59 Fyn autophosphorylation. […]

ErbB4 = ErbB4 tyrosine phosphorylation in HEK293 cells (Western blot); assay type: cell-based; conditions: for NRG1-induced ErbB4 tyrosine phosphorylation: cells expressing ErbB4 and Fyn, inhibitor 25 nM
Protocol: as §1
Thus, NRG1-induced ErbB4 phosphorylation under conditions in which Fyn and related Src-family kinases were inhibited by PP2 (selective Src-family kinase inhibitor described above). […] This may result in the creation of additional SH2 domain docking sites, thus leading to further activation of Fyn as part of a positive feedback mechanism involving NRG1, ErbB4 and Src-family kinases.

Fyn [2] = conditions: cited from earlier work
NRG1+/− mutant mice = experiment: Open field test; assay type: in vivo, mouse; conditions: single exposure
Protocol: NRG1 hypomorphic mutant mice (NRG1^+/−) are heterozygotic mice that have a mutant NRG1 allele in which the NRG1 exon encoding the transmembrane domain is disrupted in the heterozygote. These mice develop normally and breed well. […] Treatment of the NRG1^+/−mice with a clozapine (1 mg/kg), an atypical antipsychotic drug commonly used to treat schizophrenia, for 25 minutes prior to testing reversed the behavioral abnormality. […] In addition, it is known that the NRG1^+/− had 16% fewer functional NMDA receptors overall as compared to litter-mate controls as determined by MK-801 (NMDA antagonist) binding studies on forebrain homogenates (Steffanson et al., Am. J. Hum. Genet. 72: 83-7, 2003). Therefore, these mice are relevant as an in vivo model for schizophrenia.
Behavioral abnormality of NRG1^+/− mutant mice observed in the open field test is reversible with clozapine at a dose of 1 mg/kg i.p. The activity level of wild-type litter mate controls is not affected by that dose of clozapine. Thus, clozapine is not simply sedating at 1 mg/kg i.p., but has a selective effect on the behavioral abnormality of NRG1^+/− mutant mice. Reversal of the behavioral abnormality occurred rapidly within 25 minutes of a single exposure to clozapine.

[3] = tested on: NMDA receptor subunit NR2B; experiment: NR2B Tyr1472 phosphorylation in mouse hippocampal lysates (Western blot); assay type: in vivo
Protocol: To further characterize components of the NRG1/ErbB4 signaling pathway a-ErbB4 co-immunoprecipitates from mouse brain hippocampus were analyzed. […] Hippocampus tissue was isolated by manual dissection and homogenized in DOC buffer (20 μM ZnCl2, 50 mM Tris pH 9.0, 1% DOC) (1 ml/50 mg of tissue) containing protease and phosphatase inhibitors as above. 25U Benzonase Nuclease per 1 ml of lysate were added to each sample during a 60 minute incubation at 4° C. For SDS-PAGE and Western blot, sample protein content was determined using a BCA Protein Assay Reagent Kit (Pierce, Rockford, Ill.), adjusted to a final concentration of 2 μg/μl total protein in 1×SDS-PAGE sample buffer, and then 20-25 μg of protein was loaded per gel lane. For immunoprecipitation, samples were adjusted to a final concentration of 2 μg/μl total protein in DOC buffer. […]
It was hypothesized that NRG1^+/− and ErbB4^+/− mutant mice might show altered regulation of NMDA receptor subunit NR2B Tyr1472 phosphorylation related to their abnormal behavioral phenotype. Hippocampal lysates were analyzed as described in Example 1. It was determined that Tyr1472 of NR2B was hypo-phosphorylated in hippocampal lysates from 9 month old NRG1^+/− or ErbB4^+/− mutant mice as compared to age and sex matched C57B1/6 control mice (FIG. 3). […]

Structure (SMILES)	basal Fyn Tyr420 phosphorylation (Fyn [1]; basal conditions, 24 hour preincubation, 25 nM)	NRG1 induced tyrosine phosphorylation (ErbB4; HEK293 cells expressing only ErbB4)	ErbB4 basal phosphorylation (ErbB4; absence of NRG1)	NRG1-induced ErbB4 tyrosine phosphorylation (ErbB4)	IC50 (Fyn [2]; read-out: Fyn inhibition IC50) [nM]	Fyn phosphorylation (Fyn [1]; control compound)	effect on Fyn (Fyn [2]; control kinase inhibitor)	time to reversal of the behavioral abnormality (NRG1+/− mutant mice) [min]	increase of NR2B Tyr1472 phosphorylation ([3]; NRG1+/− mutant mice, 1 mg/kg i.p., 25 minutes after injection, normalized against total NR2B)	NR2B Tyr1472 phosphorylation ([3]; wild-type mice, same dose)
CC(C)(C)n1nc(-c2ccc(Cl)cc2)c2c(N)ncnc21 [PP2]	reduced	no effect	no effect	greatly reduced	[…]					
Nc1ncnc2c1cnn2-c1ccccc1 [PP3]				no effect		no effect	no effect on Fyn			
CN1CCN(C2=Nc3cc(Cl)ccc3Nc3ccccc32)CC1 [clozapine]								≤ 25	2.5-3 fold	no effect
